Source: ChEMBL document CHEMBL5226311, “Recent Progress on Tubulin Inhibitors with Dual Targeting Capabilities for Cancer Therapy” (J Med Chem, 2021)

How the values were obtained:
HL60/MX2 = assay: Antiproliferative activity against human HL60/MX2 cells assessed as cell growth inhibition; type: functional, cell-based
[1] = Antiproliferative activity against human KB/VCR cells assessed as cell growth inhibition; type: functional, cell-based
MES-SA/Dx5 = assay: Antiproliferative activity against human MES-SA/Dx5 cells assessed as cell growth inhibition; type: functional, cell-based
NCI-H460 [2] = assay: Antiproliferative activity against human NCI-H460 cells assessed as cell growth inhibition; type: functional, cell-based
NCI-H460 [3] = assay: Antitumor activity against human NCI-H460 cells xenografted in mouse assessed as inhibition of tumor growth at 30 mg/kg relative to control; type: functional; settings: read-out: TGI
NCI-H460 [4] = assay: Antitumor activity against human NCI-H460 cells expressing TaxR xenografted in mouse assessed as inhibition of tumor growth at 30 mg/kg relative to control; type: functional; settings: read-out: TGI
NCI-H460 [5] = assay: Antiproliferative activity against human NCI-H460 cells expressing TaxR assessed as cell growth inhibition; type: functional, cell-based
[6] = Antiproliferative activity against human LAMA84-s cells assessed as cell growth inhibition measured after 72 hrs by MTT assay; type: functional, cell-based
MCF7 [7] = assay: Antiproliferative activity against human MCF7 cells assessed as cell growth inhibition measured after 72 hrs by MTT assay; type: functional, cell-based; settings: MCF7, 72 h
U-266 = assay: Antiproliferative activity against human U-266 cells assessed as cell growth inhibition measured after 72 hrs by MTT assay; type: functional, cell-based; settings: U-266, 72 h
A549 [8] = assay: Antiproliferative activity against human A549 cells assessed as cell growth inhibition measured after 72 hrs by MTT assay; type: functional, cell-based; settings: A549, 72 h
A2780S = assay: Antiproliferative activity against human A2780S cells assessed as cell growth inhibition measured after 72 hrs by MTT assay; type: functional, cell-based
NCI-H460 [9] = assay: Antiproliferative activity against human NCI-H460 cells assessed as cell growth inhibition measured after 72 hrs by MTT assay; type: functional, cell-based; settings: NCI-H460, 72 h
MM1.S = assay: Antiproliferative activity against human MM1.S cells assessed as cell growth inhibition measured after 72 hrs by MTT assay; type: functional, cell-based
[10] = Antiproliferative activity against human ARD cells assessed as cell growth inhibition measured after 72 hrs by MTT assay; type: functional, cell-based
HCT-116 [11] = assay: Antiproliferative activity against human HCT-116 cells assessed as cell growth inhibition measured after 72 hrs by MTT assay; type: functional, cell-based; settings: HCT-116, 72 h
HT-29 = assay: Antiproliferative activity against human HT-29 cells assessed as cell growth inhibition measured after 72 hrs by MTT assay; type: functional, cell-based; settings: HT-29, 72 h
SK-OV-3 = assay: Antiproliferative activity against human SK-OV-3 cells assessed as cell growth inhibition measured after 72 hrs by MTT assay; type: functional, cell-based; settings: SK-OV-3, 72 h
JeKo-1 = assay: Antiproliferative activity against human JeKo-1 cells assessed as cell growth inhibition measured after 72 hrs by MTT assay; type: functional, cell-based; settings: JeKo-1, 72 h
Ramos = assay: Antiproliferative activity against human Ramos cells assessed as cell growth inhibition measured after 72 hrs by MTT assay; type: functional, cell-based
MV4-11 = assay: Antiproliferative activity against human MV4-11 cells assessed as cell growth inhibition measured after 72 hrs by MTT assay; type: functional, cell-based; settings: MV4-11, 72 h
HepG2 = assay: Antiproliferative activity against human HepG2 cells assessed as cell growth inhibition measured after 72 hrs by MTT assay; type: functional, cell-based; settings: HepG2, 72 h
MDA-MB-231 = assay: Antiproliferative activity against human MDA-MB-231 cells assessed as cell growth inhibition measured after 72 hrs by MTT assay; type: functional, cell-based; settings: MDA-MB-231, 72 h
RPMI-8226 = assay: Antiproliferative activity against human RPMI-8226 cells assessed as cell growth inhibition measured after 72 hrs by MTT assay; type: functional, cell-based; settings: RPMI-8226, 72 h
K562 = assay: Antiproliferative activity against human K562 cells assessed as cell growth inhibition measured after 72 hrs by MTT assay; type: functional, cell-based; settings: K562, 72 h
[12] = Antiproliferative activity against human HBL1 cells assessed as cell growth inhibition measured after 72 hrs by MTT assay; type: functional, cell-based; settings: HBL1, 72 h
A-375 = assay: Antiproliferative activity against human A-375 cells assessed as cell growth inhibition measured after 72 hrs by MTT assay; type: functional, cell-based; settings: A-375, 72 h
KB [13] = assay: Antiproliferative activity against etoposide-resistant human KB cells assessed as cell growth inhibition; type: functional, cell-based
KB [14] = assay: Antiproliferative activity against human KB cells assessed as cell growth inhibition; type: functional, cell-based
KB [15] = assay: Antiproliferative activity against vincristine-resistant human KB cells assessed as cell growth inhibition; type: functional, cell-based
[16] = Antiproliferative activity against human U87 cells assessed as cell growth inhibition; type: functional, cell-based, U-87MG ATCC; settings: U-87 MG
A 172 = assay: Antiproliferative activity against human A-172 cells assessed as cell growth inhibition; type: functional, cell-based
[17] = Antiproliferative activity against human U87MG Human EGFR vIII cells assessed as cell growth inhibition; type: functional, cell-based
U-251 = assay: Antiproliferative activity against human U-251 cells assessed as cell growth inhibition; type: functional, cell-based
HCT-116 [18] = assay: Antiproliferative activity against human HCT-116 cells assessed as cell growth inhibition; type: functional, cell-based
Tubulin = assay: Inhibition of tubulin depolymerization (unknown origin); type: protein-complex assay, Homo sapiens
HONE1 cell line = assay: Antiproliferative activity against human HONE1 cell line assessed as cell growth inhibition; type: functional, cell-based
MCF7 [19] = assay: Antiproliferative activity against human MCF7 cells assessed as cell growth inhibition; type: functional, cell-based
A549 [20] = assay: Antiproliferative activity against human A549 cells assessed as cell growth inhibition; type: functional, cell-based

Compound COc1ccc(O)c(C(=O)c2cnc3[nH]c4ccccc4c3c2)c1 has an IC50 (HL60/MX2) of 320 nM, an IC50 [1] of 400 nM and an IC50 (MES-SA/Dx5) of 160 nM.
CN(C)c1ccc(/C=C2/SC(=Nc3ccccc3Cl)NC2=O)cc1 showed an IC50 (NCI-H460 [2]) of 700 nM, an inhibition in vivo at 30 mg/kg (NCI-H460 [3]) of 62.4% and an inhibition in vivo at 30 mg/kg (NCI-H460 [4]) of 60.4%. The IC50 (NCI-H460 [5]) was 800 nM.
In the case of COc1ccc(N(C)c2nc(C)nc3ccccc23)cc1OCCCC(=O)NO, the IC50 [6] is reported as 31 nM, the IC50 (MCF7 [7]) is reported as 31 nM and the IC50 (U-266) is reported as 31 nM. It also gave an IC50 (A549 [8]) of 31 nM, an IC50 (A2780S) of 31 nM and an IC50 (NCI-H460 [9]) of 31 nM. For the same compound, the IC50 (MM1.S) was 31 nM, the IC50 [10] was 31 nM and the IC50 (HCT-116 [11]) was 31 nM. The IC50 (HT-29) was 31 nM, the IC50 (SK-OV-3) was 31 nM and the IC50 (JeKo-1) was 31 nM. For the same compound, the IC50 (Ramos) was 31 nM, the IC50 (MV4-11) was 31 nM and the IC50 (HepG2) was 31 nM. For the same compound, the IC50 (MDA-MB-231) was 31 nM, the IC50 (RPMI-8226) was 31 nM and the IC50 (K562) was 31 nM. For the same compound, the IC50 [12] was 31 nM and the IC50 (A-375) was 31 nM.
COc1ccc(S(=O)(=O)Nc2ccccc2NCc2ccc(C(=O)Nc3ccccc3N)cc2)cc1 showed an IC50 (KB [13]) of 22 nM, an IC50 (KB [14]) of 12 nM and an IC50 (KB [15]) of 12 nM.
CC(=O)O[C@H]1C(=O)[C@@]2(C)[C@H]([C@H](OC(=O)c3ccccc3)[C@]3(O)C[C@H](OC(=O)[C@H](O)[C@@H](NC(=O)c4ccccc4)c4ccccc4)C(C)=C1C3(C)C)[C@]1(OC(C)=O)CO[C@@H]1C[C@@H]2O [PACLITAXEL] showed an inhibition in vivo at 30 mg/kg (NCI-H460 [4]) of 40%.
O=C(CCCc1ccc(-c2ccccc2F)cc1)Nc1ccc(O)cc1 gave an EC50 [16] of 600 nM, an EC50 (A 172) of 600 nM and an EC50 [17] of 600 nM. The EC50 (U-251) was 600 nM.
COc1cc(C(=O)c2ccc3c(n2)C(=O)C(N2CCCC2)=CC3=O)cc(OC)c1OC gave an IC50 (HCT-116 [18]) of 70 nM, an IC50 (KB [14]) of 70 nM and an IC50 (Tubulin) of 5900 nM. It also gave an IC50 (HONE1 cell line) of 70 nM.
With COC(=O)NCCc1c(C(=O)c2ccccc2[N+](=O)[O-])[nH]c2ccccc12 the IC50 (MCF7 [19]) was 1590 nM and the IC50 (A549 [20]) was 740 nM.
